Experimental data: patent US8497260B2, “2-arylbenzothiophene derivatives or pharmaceutically acceptable salts thereof, preparation method thereof, and pharmaceutical composition for the diagnosis or treatment of degenerative brain disease containing the same as active ingredient” (Industry-University Cooperation Foundation Sogang University, priority 2009, dated 2013)

Columns and labels:
β-amyloid deposits = details: values from cited documents; read-out: binding affinity (Ki); cited from earlier work
[1] = biological target: T1, β-amyloid (Aβ1-42) fibrils (Homo sapiens, UniProt P05067); test: Inhibitory binding assay against [125I]TZDM on β-amyloid (Aβ1-42) fibrils; details: Aβ1-42 fibrils 10 nM, [125I]TZDM 0.05 nM, 10% ethanol, room temperature 3 hours, nonspecific binding with 2 μM ThT; read-out: Ki, relative binding affinity to [125I]TZDM (112)
T1 construct: β-Amyloid peptide (Aβ1-42, 1 mg, Bachem); purchased Bachem
Protocol: β-Amyloid peptide (Aβ1-42, 1 mg, Bachem) was completely dissolved in 1 mL of DMSO, 9 mL of phosphate buffered saline (PBS) (pH 7.4) was added thereto and well mixed. The resulting mixture was incubated at 37° C. for 60 minutes to form β-amyloid fibrils, 0.5 mL was taken and transferred to each e-tube and placed into a refrigerator maintained at −80° C.
To determine whether β-amyloid peptide was properly formed into β-amyloid fibrils, 150 μL of 5 μM Thioflavin T (ThT) was added to 50 μL of incubated β-amyloid fibrils, the fluorescence intensity of ThT binding specifically to β-amyloid fibrils at excitation/emission wavelengths (λex/λem), e.g., 450 nm/480 nm, was detected using a spectrometer.
0.850 mL of 10% Ethanol was placed into 12 mm×75 mm borosilicate test tubes, and 50 μL of β-amyloid (Aβ1-42) fibrils were added such that the final reaction concentration became 10 nM. […] Here, the nonspecific binding was performed using 2 μM Thioflavin T (ThT).

T1 sequence (P05067 672-713 limits assumed): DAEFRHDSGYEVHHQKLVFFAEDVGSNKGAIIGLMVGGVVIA

Structure (SMILES) | Ki [1] [nM] | melting point [°C] | Ki (β-amyloid deposits) [nM]
[11CH3]Nc1ccc(-c2nc3ccc(O)cc3s2)cc1 [Control Group] | – | – | 2.8
COc1cccc2sc(-c3ccc([N+](=O)[O-])cc3)cc12 [Example 1, 2-(4-nitrophenyl)-4-methoxybenzothiophene] | 0.73 | – | –
COc1ccc2cc(-c3cccc([N+](=O)[O-])c3)sc2c1 [Example 2, 2-(3-nitrophenyl)-6-methoxybenzothiophene] | 0.65 | – | –
COc1ccc2cc(-c3ccc([N+](=O)[O-])cc3)sc2c1 [Example 3, 2-(4-nitrophenyl)-6-methoxybenzothiophene] | 2.3 | – | –
O=[N+]([O-])c1ccc(-c2cc3ccc(O)cc3s2)cc1 [Example 4, 2-(4-nitrophenyl)-6-hydroxybenzothiophene] | 1.07 | 265 to 265.2 | –
COc1ccc2cc(-c3ccc(N)cc3)sc2c1 [Example 8, 2-(4-aminophenyl)-6-methoxybenzothiophene] | 0.51 | – | –
Nc1ccc(-c2cc3ccc(OCCF)cc3s2)cc1 [Example 9, 2-(4-aminophenyl)-6-(2-fluoroethoxy)benzothiophene] | 0.38 | – | –
Nc1ccc(-c2cc3ccc(OCCCF)cc3s2)cc1 [Example 10, 2-(4-aminophenyl)-6-(3-fluoropropoxy)benzothiophene] | 0.64 | 119.6 to 123.2 | –
CNc1ccc(-c2cc3ccc(OC)cc3s2)cc1 [Example 11, 2-[4-(N-monomethylamino)phenyl]-6-methoxybenzothiophene] | 0.43 | – | –
CNc1ccc(-c2cc3ccc(OCCF)cc3s2)cc1 [Example 12, 2-[4-(N-monomethylamino)phenyl]-6-(2-fluoroethoxy)benzothiophene] | 0.064 | 156.9 to 159.7 | –
CNc1ccc(-c2cc3ccc(OCCCF)cc3s2)cc1 [Example 13, 2-[4-(N-monomethylamino)phenyl]-6-(3-fluoropropoxy)benzothiophene] | 0.27 | 121.4 to 123.1 | –
COc1cccc2sc(-c3ccc(N(C)C)cc3)cc12 [Example 14, 2-[4-(N,N-dimethylamino)phenyl]-4-methoxybenzothiophene] | 0.77 | – | –
COc1ccc2cc(-c3ccc(N(C)C)cc3)sc2c1 [Example 15, 2-[4-(N,N-dimethylamino)phenyl]-6-methoxybenzothiophene] | 1.58 | – | –
CN(C)c1ccc(-c2cc3ccc(OCCF)cc3s2)cc1 [Example 16, 2-[4-(N,N-dimethylamino)phenyl]-6-(2-fluoroethoxy)benzothiophene] | 0.079 | 183.9 to 195.9 | –
CN(C)c1ccc(-c2cc3ccc(OCCCF)cc3s2)cc1 [Example 17, 2-[4-(N,N-dimethylamino)phenyl]-6-(3-fluoropropoxy)benzothiophene] | 7.41 | 177.7 to 183 | –
COc1ccc2cc(-c3ccc(OCCF)nc3)sc2c1 [Example 18, 2-[2-(2-fluoroethoxy)pyridine-5-yl]-6-methoxybenzothiophene] | 0.09 | – | –
COc1ccc2cc(-c3ccc(OCCCF)nc3)sc2c1 [Example 19, 2-[2-(3-fluoropropoxy)pyridine-5-yl]-6-methoxybenzothiophene] | 0.39 | – | –
COc1ccc(-c2cc3ccc(OCCF)cc3s2)cn1 [Example 20, 2-(2-methoxypyridine-5-yl)-6-(2-fluoroethoxy)benzothiophene] | 1.32 | – | –
Nc1ccc(-c2cc3ccc(OCCF)cc3s2)cn1 [Example 21, 2-(2-aminopyridine-5-yl)-6-(2-fluoroethoxy)benzothiophene] | 1.11 | – | –
CC(=C(C#N)C#N)c1ccc2cc(N(C)CCF)ccc2c1 [[^18F]FDDNP] | – | – | 0.12
CN(C)c1ccc(-c2cn3cc(I)ccc3n2)cc1 [[^123I/^125I]IMPY] | – | – | 15

Now from value to molecule, other results behind:

Ki [1] [nM] | melting point [°C] | Structure (SMILES) | Ki (β-amyloid deposits) [nM]
0.46 | – | CNc1ccc(-c2cc3ccc(OCCF)cc3s2)cn1 [Example 22, 2-[2-(N-monomethylamino)pyridine-5-yl]-6-(2-fluoroethoxy)benzothiophene] | –
0.72 | – | CN(C)c1ccc(-c2cc3ccc(OCCF)cc3s2)cn1 [Example 23, 2-[2-(N,N-dimethylamino)pyridine-5-yl]-6-(2-fluoroethoxy)benzothiophene] | –
1.18 | – | Nc1ccc(-c2cc3ccc(OCCCF)cc3s2)cn1 [Example 24, 2-(2-aminopyridine-5-yl)-6-(3-fluoropropoxy)benzothiophene] | –
0.06 | – | CNc1ccc(-c2cc3ccc(OCCCF)cc3s2)cn1 [Example 25, 2-[2-(N-monomethylamino)pyridine-5-yl]-6-(3-fluoropropoxy)benzothiophene] | –
0.09 | – | CN(C)c1ccc(-c2cc3ccc(OCCCF)cc3s2)cn1 [Example 26, 2-[2-(N,N-dimethylamino)pyridine-5-yl]-6-(3-fluoropropoxy)benzothiophene] | –
0.83 | – | COc1ccc2cc(-c3ccnc(OCCF)c3)sc2c1 [Example 27, 2-[2-(2-fluoroethoxy)pyridine-4-yl]-6-methoxybenzothiophene] | –
0.1 | – | COc1ccc2cc(-c3ccnc(OCCCF)c3)sc2c1 [Example 28, 2-[2-(3-fluoropropoxy)pyridine-4-yl]-6-methoxybenzothiophene] | –
0.79 | – | COc1cc(-c2cc3ccc(OCCCF)cc3s2)ccn1 [Example 30, 2-(2-methoxypyridine-4-yl)-6-(3-fluoropropoxy)benzothiophene] | –
0.61 | – | COc1ccc2cc(-c3ccnc(OCCF)n3)sc2c1 [Example 31, 2-[2-(2-fluoroethoxy)pyrimidine-4-yl]-6-methoxybenzothiophene] | –
0.46 | – | COc1ccc2cc(-c3ccnc(OCCCF)n3)sc2c1 [Example 32, 2-[2-(3-fluoropropoxy)pyrimidine-4-yl]-6-methoxybenzothiophene] | –
0.53 | – | COc1ccc2cc(-c3ccnc(NCCF)n3)sc2c1 [Example 33, 2-[2-(N-(2-fluoroethyl)amino)pyrimidine-4-yl]-6-methoxybenzothiophene] | –
0.47 | – | COc1nccc(-c2cc3ccc(OCCF)cc3s2)n1 [Example 34, 2-(2-methoxypyrimidine-4-yl)-6-(2-fluoroethoxy)benzothiophene] | –
0.55 | – | CNc1nccc(-c2cc3ccc(OCCF)cc3s2)n1 [Example 35, 2-[2-(N-monomethylamino)pyrimidine-4-yl]-6-(2-fluoroethoxy)benzothiophene] | –
0.44 | – | COc1nccc(-c2cc3ccc(OCCCF)cc3s2)n1 [Example 37, 2-(2-methoxypyrimidine-4-yl)-6-(3-fluoropropoxy)benzothiophene] | –
0.53 | – | CNc1ccnc(-c2cc3ccc(OCCF)cc3s2)n1 [Example 41, 2-[4-(N-monomethylamino)pyrimidine-2-yl]-6-(2-fluoroethoxy)benzothiophene] | –
0.25 | – | CN(C)c1ccnc(-c2cc3ccc(OCCF)cc3s2)n1 [Example 42, 2-[4-(N,N-dimethylamino)pyrimidine-2-yl]-6-(2-fluoroethoxy)benzothiophene] | –
0.37 | – | CNc1ccnc(-c2cc3ccc(OCCCF)cc3s2)n1 [Example 43, 2-[4-(N-monomethylamino)pyrimidine-2-yl]-6-(3-fluoropropoxy)benzothiophene] | –
0.065 | – | COc1ccc2cc(-c3ccc(OCCF)nn3)sc2c1 [Example 44, 2-[3-(2-fluoroethoxy)pyridazine-6-yl]-6-methoxybenzothiophene] | –
1 | – | COc1ccc2cc(-c3ccc(OCCCF)nn3)sc2c1 [Example 45, 2-[3-(3-fluoropropoxy)pyridazine-6-yl]-6-methoxybenzothiophene] | –
0.44 | – | Nc1ccc(-c2cc3ccc(OCCF)cc3s2)nn1 [Example 47, 2-(3-aminopyridazine-6-yl)-6-(2-fluoroethoxy)benzothiophene] | –
0.3 | – | CNc1ccc(-c2cc3ccc(OCCF)cc3s2)nn1 [Example 48, 2-[3-(N-monomethylamino)pyridazine-6-yl]-6-(2-fluoroethoxy)benzothiophene] | –
0.43 | – | CN(C)c1ccc(-c2cc3ccc(OCCF)cc3s2)nn1 [Example 49, 2-[3-(N,N-dimethylamino)pyridazine-6-yl]-6-(2-fluoroethoxy)benzothiophene] | –
0.18 | – | COc1ccc(-c2cc3ccc(OCCCF)cc3s2)nn1 [Example 50, 2-(3-methoxypyridazine-6-yl)-6-(3-fluoropropoxy)benzothiophene] | –
0.38 | – | Nc1ccc(-c2cc3ccc(OCCCF)cc3s2)nn1 [Example 51, 2-(3-aminopyridazine-6-yl)-6-(3-fluoropropoxy)benzothiophene] | –
0.55 | – | CNc1ccc(-c2cc3ccc(OCCCF)cc3s2)nn1 [Example 52, 2-[3-(N-monomethylamino)pyridazine-6-yl]-6-(3-fluoropropoxy)benzothiophene] | –
0.65 | – | CN(C)c1ccc(-c2cc3ccc(OCCCF)cc3s2)nn1 [Example 53, 2-[3-(N,N-dimethylamino)pyridazine-6-yl]-6-(3-fluoropropoxy)benzothiophene] | –
0.45 | – | COc1ccc2cc(-c3cncc(OCCCF)n3)sc2c1 [Example 55, 2-[2-(3-fluoropropoxy)pyrazine-6-yl]-6-methoxybenzothiophene] | –
